Paper PMC12692346, “Imidazolinium-Based NHC–Metal Complexes Overcome Both Cancer Multidrug Resistance and Cisplatin Resistance In Vitro” (International Journal of Molecular Sciences, 2025)

Assays:
[1] = system: Mes-Sa mCherry uterine sarcoma cell line; test: Triple coculture fluorescence cytotoxicity test, parental line; assay type: cell-based, human; details: 144 h incubation, fluorescence readout
Experimental: (§1) All synthesized complexes and representatives of the respective ligands (Lb, Lc, SIPr, IPr) were tested in a triple coculture of uterine sarcoma cell lines, consisting of the parental Mes-Sa cell line, and its MDR derivatives Mes-Sa/B1 and Mes-Sa/Dx5, transfected or selected in doxorubicin to overexpress P-glycoprotein, respectively (Figure 2a–c, Table S2). Each cell line expresses a distinct fluorescent protein (mCherry, mOrange, and eGFP, respectively), and the total fluorescence of a well is proportional to the cell number, allowing the assessment of compound cytotoxicity.
(§2) In a triple coculture system, cell lines expressing different fluorescent proteins were seeded in the same well. Cell lines (Mes-Sa mCherry, Mes-Sa/B1 mOrange, Mes-Sa/Dx5 eGFP [25]) were admixed and seeded on 384-well plates at a density of 3 × 800 cells/well (1:1:1 ratio), resulting in an overall total of 2400 cells. The next day, serially diluted compounds were added to the wells. Liquid handling was managed by a Hamilton StarLet pipetting robot. After 144 h of incubation, the fluorescence of mCherry (ex/em: 585/610 nm), mOrange (ex/em: 545/567 nm) and eGFP (ex/em: 485/510 nm) was recorded with an EnSpire plate reader (PerkinElmer, Waltham, MA, USA).
(§3) pIC50 values derived from both co- and monoculture systems were determined by a custom program written in C# [25], then average and standard deviations were calculated and transformed to IC50 values. Every compound was tested in at least 3 independent experiments in triplicates.

Mes-Sa/B1 mOrange = test: Triple coculture fluorescence cytotoxicity test, ABCB1-transfected MDR line; assay type: cell-based, human; details: for IC50: triple coculture, 144 h incubation, fluorescence readout; for RR_B1 resistance ratio (IC50_MDR line / IC50_parental line) of Mes-Sa/B1: Mes-Sa/B1 vs Mes-Sa
Experimental: as §1, §2, §3

Mes-Sa/Dx5 eGFP = test: Triple coculture fluorescence cytotoxicity test, doxorubicin-selected MDR line; assay type: cell-based, human; details: for IC50: triple coculture, 144 h incubation, fluorescence readout; for RR_Dx5 resistance ratio (IC50_MDR line / IC50_parental line) of Mes-Sa/Dx5: Mes-Sa/Dx5 vs Mes-Sa
Experimental: as §1, §2, §3

[2] = system: CST murine breast cancer cell line; test: Monoculture PrestoBlue cytotoxicity test, CST; assay type: cell-based, mouse; details: 120 h exposure
Experimental: (§4) CST, a drug-naïve murine breast cancer cell line, and cisplatin-resistant cells CST-2/3 were seeded in monoculture into 384-well plates (Corning Inc., Corning, NY, USA) at a density of 2500 cells per well using automated liquid-handling. The cells were preincubated for 24 h to ensure adherence, followed by the addition of serially diluted compounds to a final well volume of 60 µL. Following 120 h of continuous drug exposure, cell viability was quantified using the PrestoBlue viability assay (Thermo Fisher Scientific, Waltham, MA, USA) after 1 h incubation at 555 nm excitation and 585 nm emission wavelengths.
as §3

[3] = system: CST-2/3 cisplatin-resistant cells; test: Monoculture PrestoBlue cytotoxicity test, cisplatin-resistant CST-2/3; assay type: cell-based, mouse; details: for RR_CST resistance ratio (IC50_CST-2/3 / IC50_CST): CST-2/3 vs CST; for IC50: monoculture, 120 h exposure, PrestoBlue
Experimental: as §4, §3

[4] = system: MSCL-1 mesenchymal stem cell-like cell line; test: PrestoBlue cytotoxicity test, non-malignant MSCL-1; assay type: cell-based, human; details: for IC50: 72 h treatment, PrestoBlue; for MSCL-1 / CST ratio (IC50_MSCL-1/IC50_cancer line): MSCL-1 vs CST; for MSCL-1 / Mes-Sa ratio (IC50_MSCL-1/IC50_cancer line): MSCL-1 vs Mes-Sa
Experimental: The MSCL-1 line was seeded on 96-well plates with 15,000 cells/well density, and the following day, it was treated with the compounds for 72 h, when cell viability was assessed using a PrestoBlue viability assay.
as §3

Mes-Sa cells = test: H2DCFDA intracellular ROS assay in Mes-Sa; assay type: cell-based, human; details: 25 µM, 4 h incubation
Experimental: (§5) Intracellular ROS production was assessed by the H2DCFDA—Cellular ROS Assay Kit (ab113851, Abcam, Cambridge, UK) according to the manufacturer’s instructions. Briefly, 20,000 cells (Mes-Sa and CST) were seeded on 96-well plates 1 day prior to the experiment. The cells were washed and incubated with H2DCFDA solution for 45 min in the dark. Following an additional washing step, test compounds were added in complete, phenol red free medium (FluoroBrite™, Thermo Fisher Scientific), at a final concentration of 25 µM. Fluorescence of 2′,7′-dichlorofluorescein (DCF) was measured at 484 nm/535 nm excitation/emission wavelengths. Data were normalized to baseline (0 h) values and represent at least three independent experiments.

CST cells = test: H2DCFDA intracellular ROS assay in CST; assay type: cell-based, mouse; details: 25 µM, 4 h incubation; for increase in intracellular ROS: vs 0 h
Experimental: as §5

| Structure (SMILES) | RR_B1 resistance ratio (IC50_MDR line / IC50_parental line) of Mes-Sa/B1 (Mes-Sa/B1 mOrange) | RR_Dx5 resistance ratio (IC50_MDR line / IC50_parental line) of Mes-Sa/Dx5 (Mes-Sa/Dx5 eGFP) | RR_CST resistance ratio (IC50_CST-2/3 / IC50_CST) [3] | MSCL-1 / CST ratio (IC50_MSCL-1/IC50_cancer line) [4] | MSCL-1 / Mes-Sa ratio (IC50_MSCL-1/IC50_cancer line) [4] | intracellular ROS induction compared to serum-containing medium (in words) (Mes-Sa cells) | intracellular ROS induction compared to untreated control (in words) (CST cells) | IC50 [1] [µM] | IC50 (Mes-Sa/B1 mOrange) [µM] | IC50 (Mes-Sa/Dx5 eGFP) [µM] | IC50 [2] [µM] | IC50 [3] [µM] | IC50 [4] [µM] | increase in intracellular ROS (CST cells) [%] | other results |
| --- | --- | --- | --- | --- | --- | --- | --- | --- | --- | --- | --- | --- | --- | --- | --- |
| CC(C)c1cccc(C(C)C)c1N1C=[N+](c2c(C(C)C)cccc2C(C)C)CC1 [SIPr, reference compound] | 10.9 | 20.9 | 3.4 | 2.0 | 2.3 | did not significantly induce | No significant ROS induction | – | – | – | – | – | – | – | IC50 ([1]; Homo sapiens, MES-SA): 5.05 µM; IC50 (Mes-Sa/B1 mOrange; Homo sapiens, MES-SA): 55 µM; IC50 (Mes-Sa/Dx5 eGFP; Homo sapiens, MES-SA/Dx5): 106 µM; IC50 ([2]; Mus musculus): 5.92 µM; IC50 ([3]; Mus musculus): 20.3 µM; IC50 ([4]; Homo sapiens): 11.7 µM |
| CC(C)c1cccc(C(C)C)c1N1CCN(c2c(C(C)C)cccc2C(C)C)[C]1=[Ag+]=[C]1N(c2c(C(C)C)cccc2C(C)C)CCN1c1c(C(C)C)cccc1C(C)C.F[B-](F)(F)F [Compound 10a] | 79.5 | 162.2 | 2.4 | 6.1 | 15.7 | did not significantly induce | No significant ROS induction | 0.036 | 2.84 | 5.79 | 0.092 | 0.218 | 0.56 | – | – |
| CC(C)c1cccc(C(C)C)c1N1CCN(c2c(C(C)C)cccc2C(C)C)[C]1=[Ag][Cl] [Compound 6a] | 1.6 | 1.5 | 1.7 | 2.3 | 2.0 | did not significantly induce | – | 0.61 | 0.98 | 0.89 | 0.53 | 0.88 | 1.24 | 107 | – |
| CC(C)c1cccc(C(C)C)c1N1CCN(c2c(C(C)C)cccc2C(C)C)[C]1=[Cu+]=[C]1N(c2c(C(C)C)cccc2C(C)C)CCN1c1c(C(C)C)cccc1C(C)C.F[B-](F)(F)F [Compound 9a] | 11.6 | 14.3 | 2.2 | 7.3 | 11.2 | – | – | 0.072 | 0.84 | 1.04 | 0.11 | 0.24 | 0.81 | 61 | increase in intracellular ROS (Mes-Sa cells; vs 0 h): 99% |
| CC(C)c1cccc(C(C)C)c1N1CCN(c2c(C(C)C)cccc2C(C)C)[C]1=[Au][Cl] [Compound 7a] | 1.7 | 2.2 | 1.0 | 2.1 | 3.0 | did not significantly induce | No significant ROS induction | 8.45 | 14.5 | 18.5 | 12.2 | 12.6 | 25.7 | – | – |
